Counter-ions that a name gives are not always drawn.

The target in this assay is T1, human CGT (ceramide galactosyltransferase), CHO/CGT lysate (Homo sapiens, UniProt Q16880).
T1 construct: Full-length human CGT cDNA was cloned into the BamH1/Xho1 site of pcDNA3.1 (+); expressed in transfected cells; host or cells: Chinese hamster ovary (CHO) cells; lysate prepared with M-PER
T1 sequence (Q16880 21-541): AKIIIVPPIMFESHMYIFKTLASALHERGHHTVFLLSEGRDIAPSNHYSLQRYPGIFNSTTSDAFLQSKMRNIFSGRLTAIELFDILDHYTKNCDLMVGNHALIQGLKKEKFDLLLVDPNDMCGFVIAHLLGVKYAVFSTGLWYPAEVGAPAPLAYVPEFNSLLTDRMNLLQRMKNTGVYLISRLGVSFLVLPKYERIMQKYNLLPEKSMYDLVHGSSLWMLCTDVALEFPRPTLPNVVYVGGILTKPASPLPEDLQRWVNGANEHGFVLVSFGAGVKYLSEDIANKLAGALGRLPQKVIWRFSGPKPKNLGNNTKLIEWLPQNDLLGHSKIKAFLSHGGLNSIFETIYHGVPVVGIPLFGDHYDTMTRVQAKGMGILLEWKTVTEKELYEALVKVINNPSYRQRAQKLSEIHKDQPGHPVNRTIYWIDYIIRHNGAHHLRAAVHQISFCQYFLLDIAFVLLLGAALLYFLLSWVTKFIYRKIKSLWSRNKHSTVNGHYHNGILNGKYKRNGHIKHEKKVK
The assay is described as follows: CGT enzyme assay, RapidFire/MS/MS readout (Table 1 ranges with one asterisk *). Format: biochemical. As to conditions: RapidFire method (range with one asterisk *). In short, it runs like this: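 Lysate (4 μg) of CHO cells transfected with full-length human CGT incubated 1 h at 37 °C with compound (0.001–50 μM) in pH 7.2 HEPES buffer with 10 μM C6-NBD-dihydro-ceramide, 17.5 μM UDP-galactose, Mg2+/Mn2+, CHAPS, BSA, 0.5% DMSO; ** set also contained 0.01% Tween 80. Product quantified by RapidFire/MS/MS, normalized to internal standard; IC50 from sigmoidal variable-slope fits.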
Broadly, the IC50 is the concentration needed to halve the response being measured. Read a low IC50 as greater potency. The compound `NC1CCN(C(=O)[C@H](NS(=O)(=O)c2ccc3cc(OC4CCCC4)ccc3c2)C(F)(F)c2cccc(Oc3ccccc3)c2)CC1` [Compound 108-2, (S)—N-(3-(4-aminopiperidin-1-yl)-1,1-difluoro-3-oxo-1-(3-phenoxyphenyl)propan-2-yl)-6-(cyclopentyloxy)naphthalene-2-sulfonamide] returned an IC50 of 1 to 10 µM.
As for `NC1CCN(C(=O)[C@@H](NS(=O)(=O)c2ccc(OCC3CCCCC3)cc2)C(F)(F)c2cccc(Oc3ccccc3)c2)CC1` [Compound 109-1, (R)—N-(3-(4-aminopiperidin-1-yl)-1,1-difluoro-3-oxo-1-(3-phenoxyphenyl)propan-2-yl)-4-(cyclohexylmethoxy)benzenesulfonamide trifluoroacetate], the figure is 1 to 10 µM.
Next, `NC1CCN(C(=O)[C@H](NS(=O)(=O)c2ccc(OCC3CCCCC3)cc2)C(F)(F)c2cccc(Oc3ccccc3)c2)CC1` [Compound 109-2, (S)—N-(3-(4-aminopiperidin-1-yl)-1,1-difluoro-3-oxo-1-(3-phenoxyphenyl)propan-2-yl)-4-(cyclohexylmethoxy) benzenesulfonamide trifluoroacetate]: 1 to 10 µM; `CN([C@H](C(=O)N1C2CCC1CC(N)C2)C(F)(F)c1ccc(O)cc1)S(=O)(=O)c1ccc2cc(OC3CCCC3)ccc2c1` (stereo partly drawn) [Compound 110-1, N-((2R)-3-(3-amino-8-azabicyclo[3.2.1]octan-8-yl)-1,1-difluoro-1-(4-hydroxyphenyl)-3-oxopropan-2-yl)-6-(cyclopentyloxy)-N-methylnaphthalene-2-sulfonamide trifluoroacetate]: 1 to 10 µM.
As for `CN([C@@H](C(=O)N1C2CCC1CC(N)C2)C(F)(F)c1ccc(O)cc1)S(=O)(=O)c1ccc2cc(OC3CCCC3)ccc2c1` (stereo partly drawn) [Compound 110-2, N-((2S)-3-(3-amino-8-azabicyclo[3.2.1]octan-8-yl)-1,1-difluoro-1-(4-hydroxyphenyl)-3-oxopropan-2-yl)-6-(cyclopentyloxy)-N-methylnaphthalene-2-sulfonamide trifluoroacetate], the figure is 30 to 100 µM; as for `CN([C@H](C(=O)N1C2CCC1CC(N)C2)C(F)(F)c1cccc(Oc2ccccc2)c1)S(=O)(=O)c1ccc2cc(OC3CCCC3)ccc2c1` (stereo partly drawn) [Compound 111-1, N-((2R)-3-(3-amino-8-azabicyclo[3.2.1]octan-8-yl)-1,1-difluoro-3-oxo-1-(3-phenoxyphenyl)propan-2-yl)-6-(cyclopentyloxy)-N-methylnaphthalene-2-sulfonamide trifluoroacetate], under 1 µM; as for `CN([C@@H](C(=O)N1C2CCC1CC(N)C2)C(F)(F)c1cccc(Oc2ccccc2)c1)S(=O)(=O)c1ccc2cc(OC3CCCC3)ccc2c1` (stereo partly drawn) [Compound 111-2, N-((2S)-3-(3-amino-8-azabicyclo[3.2.1]octan-8-yl)-1,1-difluoro-3-oxo-1-(3-phenoxyphenyl)propan-2-yl)-6-(cyclopentyloxy)-N-methylnaphthalene-2-sulfonamide trifluoroacetate], 10 to 30 µM.
Regarding `NC1CCN(C(=O)[C@@H](NS(=O)(=O)c2ccc3cc(OC4CCCC4)ccc3c2)C(F)(F)c2ccc(-c3ccc(Cl)s3)cc2)CC1` [Compound 112-1, (R)—N-(3-(4-aminopiperidin-1-yl)-1-(4-(5-chlorothiophen-2-yl)phenyl)-1,1-difluoro-3-oxopropan-2-yl)-6-(cyclopentyloxy)naphthalene-2-sulfonamide trifluoroacetate], the half-inhibitory concentration (IC50) is under 1 µM.
As for `NC1CCN(C(=O)[C@H](NS(=O)(=O)c2ccc3cc(OC4CCCC4)ccc3c2)C(F)(F)c2ccc(-c3ccc(Cl)s3)cc2)CC1` [Compound 112-2, (S)—N-(3-(4-aminopiperidin-1-yl)-1-(4-(5-chlorothiophen-2-yl)phenyl)-1,1-difluoro-3-oxopropan-2-yl)-6-(cyclopentyloxy)naphthalene-2-sulfonamide trifluoroacetate], the figure is 1 to 10 µM.
Next, `NC1CC2CCC(C1)N2C(=O)[C@@H](NS(=O)(=O)c1ccc(OCC2CCCCC2)cc1)C(F)(F)c1cccc(Oc2ccccc2)c1` (stereo partly drawn) [Compound 113-1, N-((2R)-3-(3-amino-8-azabicyclo[3.2.1]octan-8-yl)-1,1-difluoro-3-oxo-1-(3-phenoxyphenyl)propan-2-yl)-4-(cyclohexylmethoxy)benzenesulfonamide trifluoroacetate]: under 1 µM; `NC1CC2CCC(C1)N2C(=O)[C@H](NS(=O)(=O)c1ccc(OCC2CCCCC2)cc1)C(F)(F)c1cccc(Oc2ccccc2)c1` (stereo partly drawn) [Compound 113-2, N-((2S)-3-(3-amino-8-azabicyclo[3.2.1]octan-8-yl)-1,1-difluoro-3-oxo-1-(3-phenoxyphenyl)propan-2-yl)-4-(cyclohexylmethoxy) benzenesulfonamide trifluoroacetate]: 1 to 10 µM; `CCOc1ccc(C(F)(F)[C@@H](C(=O)N2C3CCC2CC(N)C3)N(C)S(=O)(=O)c2ccc3cc(OC4CCCC4)ccc3c2)cc1` (stereo partly drawn) [Compound 114-1, N-((2R)-3-(3-amino-8-azabicyclo[3.2.1]octan-8-yl)-1-(4-ethoxyphenyl)-1,1-difluoro-3-oxopropan-2-yl)-6-(cyclopentyloxy)-N-methylnaphthalene-2-sulfonamide]: 1 to 10 µM.
In the case of `CCOc1ccc(C(F)(F)[C@H](C(=O)N2C3CCC2CC(N)C3)N(C)S(=O)(=O)c2ccc3cc(OC4CCCC4)ccc3c2)cc1` (stereo partly drawn) [Compound 114-2, N-((2S)-3-(3-amino-8-azabicyclo[3.2.1]octan-8-yl)-1-(4-ethoxyphenyl)-1,1-difluoro-3-oxopropan-2-yl)-6-(cyclopentyloxy)-N-methylnaphthalene-2-sulfonamide], the IC50 is 10 to 30 µM.
As for `CN([C@H](C(=O)N1C2CCC1CC(N)C2)C(F)(F)c1ccc(OCCN2CCOCC2)cc1)S(=O)(=O)c1ccc2cc(OC3CCCC3)ccc2c1` (stereo partly drawn) [Compound 115-1, N-((2R)-3-(3-amino-8-azabicyclo[3.2.1]octan-8-yl)-1,1-difluoro-1-(4-(2-morpholinoethoxy)phenyl)-3-oxopropan-2-yl)-6-(cyclopentyloxy)-N-methylnaphthalene-2-sulfonamide], the figure is 1 to 10 µM.
The compound `CN([C@@H](C(=O)N1C2CCC1CC(N)C2)C(F)(F)c1ccc(OCCN2CCOCC2)cc1)S(=O)(=O)c1ccc2cc(OC3CCCC3)ccc2c1` (stereo partly drawn) [Compound 115-2, N-((2S)-3-(3-amino-8-azabicyclo[3.2.1]octan-8-yl)-1,1-difluoro-1-(4-(2-morpholinoethoxy)phenyl)-3-oxopropan-2-yl)-6-(cyclopentyloxy)-N-methylnaphthalene-2-sulfonamide] had an IC50 of 10 to 30 µM.
Turning to `CN([C@H](C(=O)N1C2CCC1CC(N)C2)C(F)(F)c1ccc(OCCN2CCCCC2)cc1)S(=O)(=O)c1ccc2cc(OC3CCCC3)ccc2c1` (stereo partly drawn) [Compound 116-1, N-((2R)-3-(3-amino-8-azabicyclo[3.2.1]octan-8-yl)-1,1-difluoro-3-oxo-1-(4-(2-(piperidin-1-yl)ethoxy)phenyl)propan-2-yl)-6-(cyclopentyloxy)-N-methylnaphthalene-2-sulfonamide], the IC50 lay in the range of 30 to 100 µM.
As for `CN([C@@H](C(=O)N1C2CCC1CC(N)C2)C(F)(F)c1ccc(OCCN2CCCCC2)cc1)S(=O)(=O)c1ccc2cc(OC3CCCC3)ccc2c1` (stereo partly drawn) [Compound 116-2, N-((2S)-3-(3-amino-8-azabicyclo[3.2.1]octan-8-yl)-1,1-difluoro-3-oxo-1-(4-(2-(piperidin-1-yl)ethoxy)phenyl)propan-2-yl)-6-(cyclopentyloxy)-N-methylnaphthalene-2-sulfonamide], the figure is 30 to 100 µM; as for `NC1CCN(C(=O)[C@@H](NS(=O)(=O)c2ccc(OCC3CCCCC3)cc2)C(F)(F)c2ccc(-c3ccc(Cl)s3)cc2)CC1` [Compound 117-1, (R)—N-(3-(4-aminopiperidin-1-yl)-1-(4-(5-chlorothiophen-2-yl)phenyl)-1,1-difluoro-3-oxopropan-2-yl)-4-(cyclohexylmethoxy)benzenesulfonamide], 1 to 10 µM; as for `NC1CCN(C(=O)[C@H](NS(=O)(=O)c2ccc(OCC3CCCCC3)cc2)C(F)(F)c2ccc(-c3ccc(Cl)s3)cc2)CC1` [Compound 117-2, (S)—N-(3-(4-aminopiperidin-1-yl)-1-(4-(5-chlorothiophen-2-yl)phenyl)-1,1-difluoro-3-oxopropan-2-yl)-4-(cyclohexylmethoxy) benzenesulfonamide], 10 to 30 µM.
Regarding `CCCCOc1cc(C(F)(F)[C@H](NS(=O)(=O)c2ccc3cc(OC4CCCC4)ccc3c2)C(=O)N2C3CCC2CC(N)C3)ccc1Cl` (stereo partly drawn) [Compound 118-1, N-((2R)-3-(3-amino-8-azabicyclo[3.2.1]octan-8-yl)-1-(3-butoxy-4-chlorophenyl)-1,1-difluoro-3-oxopropan-2-yl)-6-(cyclopentyloxy)naphthalene-2-sulfonamide], the IC50 was under 1 µM.

These data come from patent US20190322676A1, “CERAMIDE GALACTOSYLTRANSFERASE INHIBITORS FOR THE TREATMENT OF DISEASE” (BioMarin Pharmaceutical Inc., priority 2016, published 2019).
